One block for each molecule: values may come before it.
Legend:
MONOMAC6 cells [1] = experiment: Cell proliferation assay, MONOMAC6; format: cell-based; conditions: Homo sapiens, MONO-MAC-6, 72 h, read-out: IC50, proliferation
COX-2 = target: T1, COX-2 (Homo sapiens, UniProt P35354); experiment: COX fluorescent inhibitor screening assay, COX-2; format: biochemical; conditions: even at 50 μM
T1 sequence (P35354 18-604): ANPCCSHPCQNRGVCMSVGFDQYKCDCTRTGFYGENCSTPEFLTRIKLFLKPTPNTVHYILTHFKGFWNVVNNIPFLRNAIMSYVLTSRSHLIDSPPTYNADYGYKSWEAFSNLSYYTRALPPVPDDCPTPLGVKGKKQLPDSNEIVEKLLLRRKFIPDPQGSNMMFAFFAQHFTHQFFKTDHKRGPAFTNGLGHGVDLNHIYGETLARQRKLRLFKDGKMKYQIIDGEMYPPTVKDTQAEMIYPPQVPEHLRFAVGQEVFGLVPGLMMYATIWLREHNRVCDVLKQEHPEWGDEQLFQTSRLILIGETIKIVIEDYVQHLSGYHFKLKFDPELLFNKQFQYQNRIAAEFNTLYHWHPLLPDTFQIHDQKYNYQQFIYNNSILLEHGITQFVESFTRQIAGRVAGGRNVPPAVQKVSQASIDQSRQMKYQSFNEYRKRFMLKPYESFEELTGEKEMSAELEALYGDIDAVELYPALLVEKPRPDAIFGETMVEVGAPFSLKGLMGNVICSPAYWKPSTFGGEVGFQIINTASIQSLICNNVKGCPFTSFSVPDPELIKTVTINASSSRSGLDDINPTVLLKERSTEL

[2] = test system: HDAC, DOTL1, BRD, LSD1 and Jumonji domain-containing histone demethylases; experiment: Inhibition of epigenetic enzymes in vitro; format: biochemical
NB4 cells [3] = experiment: Cell proliferation assay, NB4; format: cell-based; conditions: Homo sapiens, NB-4, 72 h, read-out: IC50, proliferation
COX-1 = target: T2, COX-1 (Ovis aries, UniProt P05979); experiment: COX fluorescent inhibitor screening assay, COX-1; format: biochemical; conditions: even at 50 μM
T2 sequence (P05979 25-600): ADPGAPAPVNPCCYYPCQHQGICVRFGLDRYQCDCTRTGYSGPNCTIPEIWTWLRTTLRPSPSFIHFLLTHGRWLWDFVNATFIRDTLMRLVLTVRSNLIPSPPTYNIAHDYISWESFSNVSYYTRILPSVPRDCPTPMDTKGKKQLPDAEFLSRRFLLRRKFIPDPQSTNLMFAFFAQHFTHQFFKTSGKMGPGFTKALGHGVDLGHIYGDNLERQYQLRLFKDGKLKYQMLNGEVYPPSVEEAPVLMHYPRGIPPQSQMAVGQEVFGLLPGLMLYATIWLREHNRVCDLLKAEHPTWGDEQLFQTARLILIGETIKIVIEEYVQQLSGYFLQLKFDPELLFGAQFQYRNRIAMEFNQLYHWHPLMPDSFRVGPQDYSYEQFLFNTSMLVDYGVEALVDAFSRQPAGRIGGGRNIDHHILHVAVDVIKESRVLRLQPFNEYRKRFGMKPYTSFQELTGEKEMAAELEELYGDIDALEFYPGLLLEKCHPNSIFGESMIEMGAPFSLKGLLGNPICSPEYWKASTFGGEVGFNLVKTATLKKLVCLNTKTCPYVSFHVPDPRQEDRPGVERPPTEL

NB4 cells [4] = experiment: Cellular uptake by LC-MS/MS quantitation, NB4; format: cell-based, human; conditions: 10 μM for 24 hr
MONOMAC6 cells [5] = experiment: Cellular uptake by LC-MS/MS quantitation, MONOMAC6; format: cell-based, human; conditions: 10 μM for 24 hr
ALKBH5 [6] = target: T3, ALKBH5 (Homo sapiens, UniProt Q6P6C2); experiment: HPLC-based assay of inhibition of ALKBH5 m6A demethylation in RNA; format: biochemical
Target sequence in this assay (Q6P6C2 67-394 limits assumed): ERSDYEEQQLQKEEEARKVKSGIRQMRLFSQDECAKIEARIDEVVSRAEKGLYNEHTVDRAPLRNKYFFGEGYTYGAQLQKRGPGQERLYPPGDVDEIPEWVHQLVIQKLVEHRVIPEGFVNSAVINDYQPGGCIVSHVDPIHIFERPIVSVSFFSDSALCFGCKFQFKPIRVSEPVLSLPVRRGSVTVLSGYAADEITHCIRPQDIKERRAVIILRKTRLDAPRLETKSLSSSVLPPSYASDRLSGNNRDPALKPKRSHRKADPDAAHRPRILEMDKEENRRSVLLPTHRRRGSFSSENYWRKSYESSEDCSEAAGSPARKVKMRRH

[7] = Pharmacokinetics in SD rats; format: in vivo; conditions: male, Sprague Dawley, rat, plasma, ip, 3 mg/kg
[8] = test system: functional primary AML LSCs; experiment: Secondary transplantation of PDX AML cells; conditions: AML cells from primary FB23-2-treated PDX mice
[9] = Toxicity study in BALB/c mice; format: in vivo; conditions: 20 mg/kg i.p. daily for 14 days
NB4 and MONOMAC6 cells = experiment: Cell proliferation assay, NB4 and MONOMAC6; format: cell-based; conditions: Homo sapiens, MONO-MAC-6, 72 h, read-out: IC50, anti-proliferative activity
FTO [10] = target: T4, FTO (Homo sapiens, UniProt Q9C0B1); experiment: HPLC-based assay of inhibition of FTO m6A demethylation in RNA; format: biochemical; conditions: HPLC quantification
Target sequence in this assay (Q9C0B1 32-505 limits assumed): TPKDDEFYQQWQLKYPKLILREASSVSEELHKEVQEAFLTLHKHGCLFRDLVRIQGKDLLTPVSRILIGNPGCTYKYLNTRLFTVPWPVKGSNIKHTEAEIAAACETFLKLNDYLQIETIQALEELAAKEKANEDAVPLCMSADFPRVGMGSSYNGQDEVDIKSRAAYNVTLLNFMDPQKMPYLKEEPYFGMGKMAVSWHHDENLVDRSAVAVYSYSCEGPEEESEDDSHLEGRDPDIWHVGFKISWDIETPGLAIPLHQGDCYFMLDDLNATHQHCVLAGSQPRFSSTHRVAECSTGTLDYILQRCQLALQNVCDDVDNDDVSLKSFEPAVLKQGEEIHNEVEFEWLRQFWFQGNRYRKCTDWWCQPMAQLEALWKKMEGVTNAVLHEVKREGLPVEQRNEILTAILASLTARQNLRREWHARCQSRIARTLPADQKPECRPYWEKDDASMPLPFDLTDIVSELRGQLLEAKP

[11] = test system: m6A peaks in mRNA of MONOMAC6 AML cells; experiment: m6A-seq in MONOMAC6 cells; format: cell-based, human; conditions: 5 μM, 72 hr, peaks identified in both DMSO and treated groups
human primary AML cells = experiment: Cell proliferation assay, primary AML cells from four patients; format: cell-based; conditions: 96 h, read-out: IC50, proliferation of primary AML cells
MONOMAC6 AML cells = experiment: MONOMAC6 xeno-transplantation leukemic model; format: in vivo, NSGS mice; conditions: 2 mg/kg i.p. daily for 10 days, from 10 days post xeno-transplantation
[12] = Microsomal stability assay; format: in vitro ADME; conditions: SD, rat, liver microsomes
[13] = test system: MA9.3ITD, MA9.3RAS, U937, ML-2 and MV4-11 AML cell lines; experiment: Cell proliferation assay, panel of additional AML cell lines; format: cell-based; conditions: Homo sapiens, 96 h, read-out: IC50, proliferation
ALKBH5 [14] = target: T3, ALKBH5; experiment: DARTS assay for ALKBH5 in AML cell lysates; format: binding
Target sequence in this assay (Q6P6C2 whole entry): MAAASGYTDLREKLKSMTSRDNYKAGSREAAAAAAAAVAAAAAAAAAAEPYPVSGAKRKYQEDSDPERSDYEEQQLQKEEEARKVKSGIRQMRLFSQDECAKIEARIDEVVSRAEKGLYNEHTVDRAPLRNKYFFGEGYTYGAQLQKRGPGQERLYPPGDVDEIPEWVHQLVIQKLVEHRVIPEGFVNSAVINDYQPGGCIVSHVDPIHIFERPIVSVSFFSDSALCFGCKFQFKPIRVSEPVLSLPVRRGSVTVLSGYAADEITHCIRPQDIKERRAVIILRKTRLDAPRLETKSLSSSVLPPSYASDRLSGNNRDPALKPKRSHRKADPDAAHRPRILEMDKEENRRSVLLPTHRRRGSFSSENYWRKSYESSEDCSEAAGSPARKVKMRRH

[15] = test system: human normal bone marrow (BM) cells; experiment: Proliferation of normal bone marrow cells; format: cell-based; conditions: BM cells from a healthy donor
TET1 protein = target: T5, TET1 protein (Homo sapiens, UniProt Q8NFU7); experiment: TET1 enzyme activity in vitro; format: biochemical; conditions: 20 μM
T5 sequence (Q8NFU7 1418-2136 limits assumed): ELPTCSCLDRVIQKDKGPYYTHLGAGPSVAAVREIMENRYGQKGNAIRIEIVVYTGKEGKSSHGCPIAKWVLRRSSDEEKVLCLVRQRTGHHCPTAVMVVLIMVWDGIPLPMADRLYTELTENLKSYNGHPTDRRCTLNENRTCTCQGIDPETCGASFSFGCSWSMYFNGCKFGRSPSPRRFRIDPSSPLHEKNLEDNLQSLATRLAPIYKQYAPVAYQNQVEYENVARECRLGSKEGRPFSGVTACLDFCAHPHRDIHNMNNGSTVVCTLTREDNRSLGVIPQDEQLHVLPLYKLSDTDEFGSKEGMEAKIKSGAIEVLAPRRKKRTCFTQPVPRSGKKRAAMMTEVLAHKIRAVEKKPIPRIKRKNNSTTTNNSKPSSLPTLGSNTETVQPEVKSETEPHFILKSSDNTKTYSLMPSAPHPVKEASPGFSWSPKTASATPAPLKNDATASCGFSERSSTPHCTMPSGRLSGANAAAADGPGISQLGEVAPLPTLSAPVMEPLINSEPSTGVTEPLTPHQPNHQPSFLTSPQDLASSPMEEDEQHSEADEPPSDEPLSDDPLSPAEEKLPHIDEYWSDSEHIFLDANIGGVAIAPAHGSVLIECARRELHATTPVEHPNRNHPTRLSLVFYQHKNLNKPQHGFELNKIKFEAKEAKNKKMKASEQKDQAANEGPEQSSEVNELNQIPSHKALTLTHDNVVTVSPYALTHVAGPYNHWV

oncogenic proteases = experiment: Protease profiling; format: biochemical, human; conditions: 1 μM or 10 μM
FTO [16] = target: T4, FTO; experiment: DARTS assay for FTO in AML cell lysates; format: binding; conditions: 50, 200, 500 μM
Target sequence in this assay (Q9C0B1 whole entry): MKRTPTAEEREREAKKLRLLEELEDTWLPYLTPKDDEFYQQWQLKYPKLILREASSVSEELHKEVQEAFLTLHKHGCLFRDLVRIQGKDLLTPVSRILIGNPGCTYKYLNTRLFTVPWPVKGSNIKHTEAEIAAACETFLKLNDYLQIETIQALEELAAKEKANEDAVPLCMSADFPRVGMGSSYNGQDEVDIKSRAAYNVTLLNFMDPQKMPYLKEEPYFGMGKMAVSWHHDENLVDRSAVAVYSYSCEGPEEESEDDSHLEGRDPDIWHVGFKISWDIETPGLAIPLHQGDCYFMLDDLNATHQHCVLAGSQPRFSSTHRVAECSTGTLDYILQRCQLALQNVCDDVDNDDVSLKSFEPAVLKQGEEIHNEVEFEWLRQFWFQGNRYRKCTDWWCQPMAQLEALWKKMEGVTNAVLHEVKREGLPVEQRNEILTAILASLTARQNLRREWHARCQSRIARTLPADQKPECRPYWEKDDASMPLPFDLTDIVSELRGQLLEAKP

[17] = test system: primary AML cells (patient Pt 2017_63); experiment: PDX AML mouse model; conditions: 6 mg/kg/day i.p. for 17 days

effect on activities of epigenetic targets in vitro [2]: slightly attenuated
intracellular concentration (NB4 cells [4]): 0.02 nmol/million
intracellular concentration (MONOMAC6 cells [5]): 0.015 nmol/million
inhibition of ALKBH5 demethylation in vitro (ALKBH5 [6]): neither FB23 nor FB23-2 inhibits
Compound: Cc1noc(C)c1-c1cc(Cl)c(Nc2ccccc2C(=O)O)c(Cl)c1 [FB23, 2-((2,6-dichloro-4-(3,5-dimethylisoxazol-4-yl)phenyl)amino)benzoic acid]
IC50 (MONOMAC6 cells [1]): 23.6 µM
inhibition of COX-2 (COX-2): neither FB23 nor FB23-2 was observed to significantly inhibit
IC50 (NB4 cells [3]): 44.8 µM
inhibition of COX-1 (COX-1): neither FB23 nor FB23-2 was observed to significantly inhibit

Compound: Cc1noc(C)c1-c1cc(Cl)c(Nc2ccccc2C(=O)NO)c(Cl)c1 [FB23-2, 2-((2,6-dichloro-4-(3,5-dimethylisoxazol-4-yl)phenyl)amino)-N-hydroxybenzamide]
AUC(0-t) [7]: 2180 ± 152 ng·h/mL
Cmax [7]: 2420 ± 90.9 ng/mL
Tmax [7]: 4.8 min
half-life [7]: 6.7 ± 1.3 h
inhibition of COX-2 (COX-2): neither FB23 nor FB23-2 was observed to significantly inhibit
secondary PDX mice still surviving after 100 days [8]: 50%
effect on activities of epigenetic targets in vitro [2]: slightly attenuated
body weight loss [9]: no evidence of body weight loss
hematopoiesis (hematology and plasma biochemistry) vs vehicle [9]: no significant difference
physical damage on organs [9]: nor was any physical damage observed
IC50 (NB4 and MONOMAC6 cells): 0.8 to 1.5 µM
inhibitory activity on FTO demethylation in vitro (FTO [10]): maintains inhibitory activity
share of m6A peaks increased upon treatment [11]: 62.1%
IC50 (human primary AML cells): 1.6 to 16 µM
survival of leukemic mice (MONOMAC6 AML cells): almost doubling the median survival
CLint scaled at 3 μM [12]: 19.7 mL/min/kg
half-life at 3 μM [12]: 2.13 h
IC50 [13]: 1.9 to 5.2 µM
inhibition of COX-1 (COX-1): neither FB23 nor FB23-2 was observed to significantly inhibit
direct binding to ALKBH5 (DARTS) (ALKBH5 [14]): could not directly bind
effect on proliferation of normal BM cells [15]: minimally altered proliferation
inhibition of TET1 protein in vitro (TET1 protein): minimally inhibited
inhibition of oncogenic proteases (oncogenic proteases): barely inhibited
inhibition of ALKBH5 demethylation in vitro (ALKBH5 [6]): neither FB23 nor FB23-2 inhibits
protease resistance of FTO protein (DARTS) (FTO [16]): protease-resistant
median survival time [17]: 58 days

— PMC6812656 (Cancer cell, 2019)
